US20230364111A1 (priority 2020, published 2023)
≈ marks a conversion by molar mass, not a printed value. Entries after “also recorded” stand apart in the source; their conditions may differ. Like-named read-outs stand apart in the source and are kept apart here.

Assays:
in vitro [1] = details: African green monkey
Calu-3 cells = details: at higher concentrations; automated microscopy
[2] = tested on: SARS-CoV-2 TY7-501 (Brazil strain); assay: SARS-CoV-2 TY7-501 strain infection in VeroE6/TMPRSS2 cells; type: cell-based; details: viral RNA 24 h post-inoculation
Protocol: (§1) FIGS. 12A-12C depict dose-response curves for Oxy232. (FIG. 12A) Secreted viral RNA in the VeroE6 culture supernatant 24 h post-inoculation was quantified by real-time RT-PCR. Cell viability of Oxy232 treated cells evaluated with an MTT assay. (FIG. 12B) Secreted viral RNA of 3 SARS-CoV-2 strains in the VeroE6 culture supernatant 24 h post-inoculation was quantified by real-time RT-PCR. (FIG. 12C) Calu-3 (ATCC) cells were pretreated with Oxy232 for 2 hours prior to continuous infection with SARS-CoV-2 (isolate USA WA1/2020) at MOI=0.5. 48 h post-infection, cells were fixed, immune-strained, and imaged by automated microscopy for infection (dsRNA+ cells/total cell number) and cell number.
(§2) According to a previously published report (Ohashi et al., Identification of Anti-Severe Acute Respiratory Syndrome-Related Coronavirus 2 (SARS-CoV-2) Oxysterol Derivatives In Vitro. Int J Mol Sci. 2021; 22(6):3163. PMCID: PMC8003796) inventors have tested a collection of naturally occurring and semisynthetic oxysterol derivatives in a SARS-CoV-2 cell culture infection assay in VeroE6/TMPRSS2 cells. […] See, Ohashi et al., Int J Mol Sci. 2021; 22(6):3163 and Dittmar et al. Drug repurposing screens reveal cell-type-specific entry pathways and FDA-approved drugs active against SARS-Cov-2. Cell Rep. […] PMCID: PMC7985926. […]

[3] = for Mean Oxy232 Levels in Lung Tissue (ng/g) / Mean Oxy232 Levels in Lung Tissue (μM): oral 200 mg/kg
VeroE6/TMPRSS2 cells = details: MTT assay; 24 h; VeroE6/TMPRSS2 cells
[4] = tested on: SARS-CoV-2 (isolate USA WA1/2020); assay: SARS-CoV-2 infection of Calu-3 cells (dsRNA+ cells, automated microscopy); type: cell-based
Protocol: as §1
According to a previously published report (Ohashi et al., Identification of Anti-Severe Acute Respiratory Syndrome-Related Coronavirus 2 (SARS-CoV-2) Oxysterol Derivatives In Vitro. Int J Mol Sci. 2021; 22(6):3163. PMCID: PMC8003796) inventors have tested a collection of naturally occurring and semisynthetic oxysterol derivatives in a SARS-CoV-2 cell culture infection assay in VeroE6/TMPRSS2 cells. […] See, Ohashi et al., Int J Mol Sci. 2021; 22(6):3163 and Dittmar et al. Drug repurposing screens reveal cell-type-specific entry pathways and FDA-approved drugs active against SARS-Cov-2. Cell Rep. […] PMCID: PMC7985926. […] Without wishing to be bound by a theory, biological activities of oxysterols, including measures of cell viability, can heavily depend on in vitro assay conditions, such as the fetal bovine serum concentration or the duration of pretreatment with the compounds, among other factors, that may not translate to the in vivo safety of the compounds.

[5] = tested on: SARS-CoV-2 TY8-612 (South Africa strain); assay: SARS-CoV-2 TY8-612 strain infection in VeroE6/TMPRSS2 cells; type: cell-based; details: viral RNA 24 h post-inoculation
Protocol: as §1, §2

TGFβ signaling = type: cell-based; details: 10 μM; NIH3T3 cells stimulated with 20 ng/mL TGFβ
SARS-CoV-2 Wk-521 strain = assay: SARS-CoV-2 infection assay, viral RNA in culture supernatant (VeroE6/TMPRSS2 cells); type: cell-based
[6] = tested on: double-membrane vesicles (DMVs) in SARS-CoV-2-infected cells; assay: Electron microscopy of double-membrane vesicle (DMV) formation; type: cell-based; details: 10 μM Oxy210, Oxy232 (10 μM)
in vitro [7] = details: human
Hedgehog (Hh) signaling = type: cell-based; details: 10 μM; NIH3T3 cells with CAPAN-1 conditioned medium containing Shh

Compound: CC[C@@](O)(CCc1cccnc1)[C@H]1CC[C@H]2[C@@H]3CC[C@H]4C[C@@H](O)CC[C@]4(C)[C@H]3CC[C@]12C [Oxy232, (3S,5S,8R,9S,10S,13S,14S,17S)-17-((R)-3-hydroxy-1-(pyridin-3-yl)pentan-3-yl)-10,13-dimethylhexadecahydro-1H-cyclopenta[a]phenanthren-3-ol]
- CC50 (in vitro [1]): > 15 µM
- cell viability in Calu-3 cells (Calu-3 cells): do affect cell viability
- activity against the TY7-501 strain [2]: undiminished activity
- Mean Oxy232 Levels in Lung Tissue (ng/g) ([3]; mice, time 0 h): 0 ng/g
- Mean Oxy232 Levels in Lung Tissue (μM) ([3]; mice, time 0 h): 0 µM
- Mean Oxy232 Levels in Lung Tissue (ng/g) ([3]; mice, time 0.25 h): 1500 ng/g
- Mean Oxy232 Levels in Lung Tissue (μM) ([3]; mice, time 0.25 h): 3.41 µM
- Mean Oxy232 Levels in Lung Tissue (ng/g) ([3]; mice, time 0.5 h): 8055 ng/g
- Mean Oxy232 Levels in Lung Tissue (μM) ([3]; mice, time 0.5 h): 18.32 µM
- Mean Oxy232 Levels in Lung Tissue (ng/g) ([3]; mice, time 1 h): 9427 ng/g
- Mean Oxy232 Levels in Lung Tissue (μM) ([3]; mice, time 1 h): 21.44 µM
- Mean Oxy232 Levels in Lung Tissue (ng/g) ([3]; mice, time 2 h): 7764 ng/g
- Mean Oxy232 Levels in Lung Tissue (μM) ([3]; mice, time 2 h): 17.66 µM
- Mean Oxy232 Levels in Lung Tissue (ng/g) ([3]; mice, time 4 h): 2916 ng/g
- Mean Oxy232 Levels in Lung Tissue (μM) ([3]; mice, time 4 h): 6.63 µM
- Mean Oxy232 Levels in Lung Tissue (ng/g) ([3]; mice, time 8 h): 673 ng/g
- Mean Oxy232 Levels in Lung Tissue (μM) ([3]; mice, time 8 h): 1.53 µM
- Mean Oxy232 Levels in Lung Tissue (ng/g) ([3]; mice, time 24 h): 122 ng/g
- Mean Oxy232 Levels in Lung Tissue (μM) ([3]; mice, time 24 h): 0.28 µM
- tolerability of oral dosing ([3]; oral dosing in mice): well tolerated
- concentrations in lung tissue homogenate compared to plasma ([3]; single dose 200 mg/kg, mice): generally higher than in plasma
- time lung homogenate concentration above Calu-3 IC50 levels ([3]; single dose 200 mg/kg, mice): more than 3.5 h
- time lung homogenate concentration above VeroE6 IC50 levels ([3]; single dose 200 mg/kg, mice): 5 h
- time plasma concentration above IC50 levels for antiviral activity (VeroE6/TMPRSS2) ([3]; single dose 200 mg/kg, mice): more than 3 hours
- CC50 (VeroE6/TMPRSS2 cells): > 15 µM
- IC50 ([4]; Severe acute respiratory syndrome coronavirus 2, Calu-3, read-out: IC50 Calu-3 cells (ng/ml)): 3050 ng/mL
- IC90 ([4]; Severe acute respiratory syndrome coronavirus 2, Calu-3, read-out: IC90 Calu-3 cells (ng/ml)): 5920 ng/mL
- IC50 ([4]; Severe acute respiratory syndrome coronavirus 2, Calu-3, Table 6, read-out: IC50 Calu-3 cells): 6.9 µM
- IC90 ([4]; Severe acute respiratory syndrome coronavirus 2, Calu-3, Table 6, read-out: IC90 Calu-3 cells): 13.5 µM
- IC50 ([4]; Severe acute respiratory syndrome coronavirus 2, SARS-CoV-2 USA WA1/2020, MOI=0.5, 48 h post-infection, Calu-3, read-out: IC50 (Calu-3)): 6.9 µM
- IC90 ([4]; Severe acute respiratory syndrome coronavirus 2, SARS-CoV-2 USA WA1/2020, MOI=0.5, 48 h post-infection, Calu-3, read-out: IC90 (Calu-3)): 13.5 µM
- antiviral activity in Calu-3 human lung epithelial cells ([4]; USA WA1/2020 isolate, at NIAID): confirmed the antiviral activity
- activity against the TY8-612 strain [5]: undiminished activity
- TGFβ inhibitory properties (CTGF mRNA) (TGFβ signaling): devoid of significant TGFβ pathway inhibitory properties
- viral RNA in the culture supernatant (SARS-CoV-2 Wk-521 strain; 24 h post-inoculation, natural oxysterols up to 30 μM, semi-synthetic up to 15 μM): reduced viral RNA level in a dose-dependent manner
- IC50 (SARS-CoV-2 Wk-521 strain; Severe acute respiratory syndrome coronavirus 2, Vero C1008, read-out: IC50 VeroE6 cells (ng/mL)): 2370 ng/mL
- IC90 (SARS-CoV-2 Wk-521 strain; Severe acute respiratory syndrome coronavirus 2, Vero C1008, read-out: IC90 VeroE6 cells (ng/mL), Table 6, same value in mass units): 3250 ng/mL
- IC50 (SARS-CoV-2 Wk-521 strain; Severe acute respiratory syndrome coronavirus 2, Vero C1008, SARS-CoV-2, VeroE6, read-out: IC50 (VeroE6)): 5.4 µM
- IC90 (SARS-CoV-2 Wk-521 strain; Severe acute respiratory syndrome coronavirus 2, Vero C1008, SARS-CoV-2, VeroE6, read-out: IC90 (VeroE6)): 7.8 µM
- IC50 (SARS-CoV-2 Wk-521 strain; Severe acute respiratory syndrome coronavirus 2, Vero C1008, Table 6, read-out: IC50 VeroE6 cells): 5.4 µM
- IC90 (SARS-CoV-2 Wk-521 strain; Severe acute respiratory syndrome coronavirus 2, Vero C1008, Table 6, read-out: IC90 VeroE6 cells): 7.8 µM
- IC90 (SARS-CoV-2 Wk-521 strain; Severe acute respiratory syndrome coronavirus 2, VeroE6/TMPRSS2, 24 h, SARS-CoV-2 viral RNA in culture supernatant, 24 h post-inoculation, VeroE6/TMPRSS2 cells, read-out: IC90): 7.8 µM
- IC50 (SARS-CoV-2 Wk-521 strain; Severe acute respiratory syndrome coronavirus 2, SARS-CoV-2 viral RNA in culture supernatant, 24 h post-inoculation, VeroE6/TMPRSS2 cells, read-out: IC50): 5.4 µM
- IC90 VeroE6 cells (SARS-CoV-2 Wk-521 strain; Table 6, same value in mass units): 3.429 µg/mL (≈ 7.8 µM)
- reduction of viral RNA production at the maximum (SARS-CoV-2 Wk-521 strain; at 15 μM): 99.9%
- anti-SARS-CoV-2 activity (SARS-CoV-2 Wk-521 strain; cell-based assay, VeroE6/TMPRSS2): superior anti-SARS-CoV-2 activity; also recorded: anti-SARS-CoV-2 activity comparable to Oxy210; also recorded: significant anti SARS-CoV-2 activity
- viral RNA levels in the culture supernatant (SARS-CoV-2 Wk-521 strain; oxysterol derivatives at 10 or 30 uM, 24 h post-inoculation, VeroE6/TMPRSS2): strongly reduced viral RNA levels
- SARS-CoV-2 replication (SARS-CoV-2 Wk-521 strain; statement in words): drastically reduced SARS-CoV-2 replication
- viral inhibition (SARS-CoV-2 Wk-521 strain; tested in multiple studies, VeroE6/TMPRSS2): greater than 99%
- DMV formation in SARS-CoV-2-infected cells [6]: inhibit DMV formation
- CC50 (in vitro [7]): 29.4 µM
- inhibitory activity toward Hh signaling (Gli1 mRNA) (Hedgehog (Hh) signaling): retains inhibitory activity toward Hh signaling
